One experiment concerns Male Crl: WI rats. Put plainly: Effect of suppressing impulsivity in rat (T-maze delayed large reward choice, i.p.). Format: in vivo. The following applies: 3 mg/kg, daily over 5 days, tested 40 min after administration, compared with vehicle control group. The text has this:
Male Crl: WI rats were obtained at post-natal day 14 and weaning was occurred at post-natal day 21. Starting from then, the rats were housed 2-3 per cage and food-restricted (Day 1). The feeding amount was 5 g/day at post-natal day 21-28 (Day 1-8), 8.5 g/day at post-natal day 29-32 (Day 9-12), and 10 g/day at post-natal day 33-36 (Day 13-16), preventing their body weight from being 60% or less of the weight of the free feeding rats.
4 days after the beginning of the food restriction (Day 5), pellets were put on goal boxes located in the left-side and the right-side of T-maze. Then, the rats were allowed to freely explore the T-maze-box for 5 min to get habituated to the T-maze box and learn that the pellets were put on the goal boxes located in the left-side and the right-side. For 4 consecutive days from the next day (Day 6-9), one pellet (20 mg×1) was put in one side of the goal box as a small reward, and 5 pellets (20 mg×5) were put in the other side of the goal box as a large reward, and the rats were trained to learn their positions. Each rat underwent 10-trial per day trainings. […] The evaluations of the drug efficacy were started on Day 12. The compounds of the present invention were dissolved in distilled water containing 3% of 1 mol/L hydrochloric acid and administered i.p. to the trained rats to attain the dose of 1, 3 or 10 mg/kg. […]

Experiment [1] addresses human recombinant dopamine D3 receptor (Homo sapiens (Human), UniProt P35462). Put plainly: Test of binding inhibition for the human dopamine D3 receptor ([3H]-Metylspiperone SPA binding). The following applies: [3H]-Metylspiperone 2 nM, Jump-In HEK cell membranes, read-out: hD3_Ki.
In experiment [2] the target is human recombinant dopamine D2 receptor (Homo sapiens (Human), UniProt P14416). Put plainly: Test of binding inhibition for the human dopamine D2 receptor ([3H]-Metylspiperone SPA binding). The following applies: [3H]-Metylspiperone 1.2 nM, Jump-In HEK cell membranes, read-out: hD2_Ki. Summed up:
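Scintillation proximity binding with HEK membranes expressing human D2 receptor (2 μg/well), 1.2 nM [3H]-methylspiperone, in Tris-HCl pH 7.4 with NaCl, MgCl2, KCl and CaCl2; 120 min at 25° C.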

Bounds are passed on as bounds.

Chain of human recombinant dopamine D3 receptor (P35462 whole entry): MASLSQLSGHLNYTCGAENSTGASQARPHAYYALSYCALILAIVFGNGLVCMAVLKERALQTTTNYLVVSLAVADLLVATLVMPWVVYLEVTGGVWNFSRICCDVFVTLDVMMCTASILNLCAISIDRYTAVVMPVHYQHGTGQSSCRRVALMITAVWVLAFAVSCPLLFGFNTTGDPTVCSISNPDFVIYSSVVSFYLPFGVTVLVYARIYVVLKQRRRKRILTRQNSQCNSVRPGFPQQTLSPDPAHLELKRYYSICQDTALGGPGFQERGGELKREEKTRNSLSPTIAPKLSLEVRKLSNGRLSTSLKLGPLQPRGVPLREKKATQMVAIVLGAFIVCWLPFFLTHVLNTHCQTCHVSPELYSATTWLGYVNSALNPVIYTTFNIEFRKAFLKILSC
Chain of human recombinant dopamine D2 receptor (P14416 whole entry): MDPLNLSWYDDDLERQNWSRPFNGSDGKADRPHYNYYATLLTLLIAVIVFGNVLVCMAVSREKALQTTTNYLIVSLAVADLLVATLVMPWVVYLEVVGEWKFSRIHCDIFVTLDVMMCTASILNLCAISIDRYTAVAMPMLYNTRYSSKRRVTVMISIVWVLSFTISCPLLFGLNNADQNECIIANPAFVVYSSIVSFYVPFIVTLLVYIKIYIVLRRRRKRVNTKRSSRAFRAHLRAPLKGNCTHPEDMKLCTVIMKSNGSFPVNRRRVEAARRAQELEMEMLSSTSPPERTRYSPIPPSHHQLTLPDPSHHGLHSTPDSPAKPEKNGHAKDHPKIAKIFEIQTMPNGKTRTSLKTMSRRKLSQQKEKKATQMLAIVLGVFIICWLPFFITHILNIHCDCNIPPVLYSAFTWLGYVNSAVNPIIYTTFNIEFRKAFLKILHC

Consider `O=C(N[C@H]1CC[C@H](CCN2CCc3sc(OCC(F)F)nc3C2)CC1)c1cccc2ncccc12` [Compound I-085], for which the “number of choices of the large reward during total 50 trials of 5 days” value in the experiment with Male Crl: WI rats was “significantly increased”.

As for `Cn1cc2c(C(=O)N[C@H]3CC[C@H](CCN4CCc5sc(COC(F)(F)F)nc5C4)CC3)cccc2n1` [III-623], the Ki in experiment [1] was 0.83 nM; in experiment [2], > 1800 nM.

`Cn1ccc2c(C(=O)N[C@H]3CC[C@H](CCN4CCc5sc(OCC(C)(F)F)nc5C4)CC3)cccc2c1=O` [III-630]: the Ki in experiment [1] was 0.16 nM; in experiment [2], > 1900 nM.

Take `Cn1cc2c(C(=O)N[C@H]3CC[C@H](CCN4CCc5sc(CCC(C)(F)F)nc5C4)CC3)cccc2n1` [III-642]: the Ki in experiment [1] was found to be 0.37 nM; in experiment [2], 920 nM.

On to `O=C(N[C@H]1CO[C@H](CCN2CCc3sc(OCC(F)(F)F)nc3C2)OC1)OCc1ccccc1` [III-659], for which the results for the Ki in experiment [1] and in experiment [2] were 9.6 nM and 1500 nM, respectively.

As to `Cn1cc2c(C(=O)NN3CCC(CCN4CCc5sc(OCC(F)(F)F)nc5C4)CC3)cccc2n1` [III-661], the Ki in experiment [1] worked out at 0.5 nM; in experiment [2], 1300 nM.

Regarding `Cn1cc2c(C(=O)N[C@H]3CC[C@H](CCN4CCc5sc(OCC(C)(F)F)nc5C4)CC3)ccc(F)c2n1` [III-666], the values for the Ki in experiment [1] and in experiment [2] were 0.2 nM and 210 nM, respectively.

As for `Cc1nnc(CC(=O)N[C@H]2CC[C@H](CCN3CCc4sc(CCC(F)(F)F)nc4C3)CC2)o1` [III-674], the Ki stood at 1.1 nM in experiment [1] and 1100 nM in experiment [2].

Regarding `Cn1cc2c(C(=O)N[C@H]3CC[C@H](CCN4CCc5sc(CCC(F)F)nc5C4)CC3)cccc2n1` [III-685], the Ki was determined as 0.1 nM in experiment [1] and 280 nM in experiment [2].

With `Cc1ncc(CC(=O)N[C@H]2CC[C@H](CCN3CCc4sc(CCC(F)(F)F)nc4C3)CC2)o1` [III-696], the Ki in experiment [1] came out at 0.2 nM; in experiment [2], 800 nM.

As for `CN1Cc2c(C(=O)N[C@H]3CC[C@H](CCN4CCc5sc(CCC(F)(F)F)nc5C4)CC3)cccc2C1=O` [III-697], the Ki in experiment [1] was determined as 0.23 nM; in experiment [2] it was 220 nM.

`Cc1cnc(CC(=O)N[C@H]2CC[C@H](CCN3CCc4sc(CCC(F)(F)F)nc4C3)CC2)o1` [III-698]: the Ki was 0.52 nM in experiment [1] and 770 nM in experiment [2].

With `CCN1Cc2c(C(=O)N[C@H]3CC[C@H](CCN4CCc5sc(CCC(F)(F)F)nc5C4)CC3)cccc2C1=O` [III-701], the Ki was found to be 0.15 nM in experiment [1] and 190 nM in experiment [2].

In the case of `CCn1c(C(=O)N[C@H]2CC[C@H](CCN3CCc4sc(CCC(F)(F)F)nc4C3)CC2)cccc1=O` [III-704], the Ki in experiment [1] was 0.51 nM; in experiment [2] it was 380 nM.

`Cc1nc(/C=C/C(=O)N[C@H]2CC[C@H](CCN3CCc4sc(N5CC(F)(F)C5)nc4C3)CC2)cs1` [III-706]: the Ki in experiment [1] stood at 0.051 nM; in experiment [2], 290 nM.

The values are drawn from patent US10870660B2, “Nitrogen-containing condensed ring compounds having dopamine D3 antagonistic effect” (Shionogi & Co., Ltd., priority 2016, dated 2020).
